Results taken from patent US12103916B2, “Antifungal compounds” (University of Kentucky Research Foundation, priority 2016, dated 2024).
Read-outs that look alike come from different tables or passages of the source. Marks after values point to notes of the source that are not given here.

Legend:
[1] = tested on: C. albicans ATCC 90819(R); assay: MIC determination, strain D; format: cell-based, Candida albicans; details: Candida albicans, ATCC90819
Procedure: (§1) The antifungal activity of our new azole compounds 1-9 and 24-41 was first evaluated against a panel of seven Candida albicans strains (A-G), three non-albicans Candida strains […], and three Aspergillus strains (K-M) in a concentration range of 0.03-31.2 μg/mL (Table 1). […] For all of our azole derivatives we report their MIC-0 values against C. albicans ATCC 10231 (strain A) and all Aspergillus strains (K-M), which correspond to complete growth inhibition of these fungi. […] The commercially available antifungals AmB, FLC, ITC, POS, and VOR were used as reference drugs for comparison. The MIC values presented for these five control drugs were either tested herein or correspond to our previously published data^5, 16 as indicated in Table 1.
(§2) Antifungal activity in the absence or presence of serum. The antifungal activity of the newly prepared alkylated piperazine/morpholine-azole hybrids 16-28, of intermediate 14 that we used to verify that only final compounds exert antifungal activity, as well as that of alkylated piperazine/morpholine derivatives 1-10 were first evaluated against a panel of seven C. albicans (ATCC 10231 (A), ATCC 64124(R) (B), ATCC MYA-2876(S) (C), ATCC 90819(R) (D), ATCC MYA-2310(S) (E), ATCC MYA-1237(R) (F), and ATCC MYA-1003(R) (G)), three non-albicans Candida (C. glabrata ATCC 2001 (H), C. krusei ATCC 6258 (I), and C. parapsilosis ATCC 22019 (J)), and three Aspergillus (A. flavus ATCC MYA-3631 (K), A. nidulans ATCC 38163 (L), and A. terreus ATCC MYA-3633 (M)) strains using a concentration range of 0.03-31.3 μg/mL (Table 2).
(§3) Commercially available antifungal agents such as AmB, CAS, FLC, and VOR were used as positive controls for comparison. […] It is important to note that all comparisons to follow will be done by using the MIC values reported in μg/mL as the data were collected that way. However, we also present in parentheses in Table 2 the corresponding values in micromolar.
(§4) We used the commercially available antifungal agents such as AmB, caspofungin (CAS), FLC, and VOR as positive controls for comparison. For derivatives 5-16 as well as the reference drugs AmB and CAS, we reported MIC-0 values, which correspond to no visible growth. […] In this manuscript, we performed all activity comparisons by using the MIC values reported in μg/mL (Note: the corresponding MIC values are also provided in μM into parentheses in Tables 1, 2, S1, and S2).

[2] = tested on: Candida glabrata ATCC 2001; assay: MIC determination, strain H; format: cell-based; details: Nakaseomyces glabratus, ATCC2001
Procedure: as §1, §2, §3, §4

[3] = tested on: Candida parapsilosis ATCC 22019; assay: MIC determination, strain J; format: cell-based; details: Lodderomyces parapsilosis
Procedure: as §1, §2, §3, §4

[4] = tested on: C. albicans ATCC 64124; details: Table 1; strain B; control azoles; previously reported (refs 5, 16); cited from earlier work
[5] = tested on: Aspergillus terreus ATCC MYA-3633; assay: MIC determination, strain M; format: cell-based; details: Aspergillus terreus, Table 2, all compounds and controls
Source text: (§5) For all of our azole derivatives we report their MIC-0 values against C. albicans ATCC 10231 (strain A) and all Aspergillus strains (K-M), which correspond to complete growth inhibition of these fungi. […] The MIC values presented for these five control drugs were either tested herein or correspond to our previously published data^5, 16 as indicated in Table 1.
(§6) Antifungal activity in the absence or presence of serum.
(§7) It is important to note that all comparisons to follow will be done by using the MIC values reported in μg/mL as the data were collected that way. However, we also present in parentheses in Table 2 the corresponding values in micromolar.
(§8) In this manuscript, we performed all activity comparisons by using the MIC values reported in μg/mL (Note: the corresponding MIC values are also provided in μM into parentheses in Tables 1, 2, S1, and S2).

[6] = tested on: C. glabrata ATCC 2001 (strain H); assay: Time-kill assay, strain H; format: cell-based, Candida glabrata; details: Ex.2 series, compound at 4×MIC, VOR control
Procedure: FIG. 9A-9D include Representative time-kill curves for compound 20 against FIG. 9A. C. albicans ATCC 10231 (strain A) and FIG. 9B. C. parapsilosis ATCC 22019 (strain J), as well as for compound 22 against FIG. 9C. C. glabrata ATCC 2001 (strain H), and FIG. 9D. strain J. Fungal strains were treated with no drug (black circles), 1×MIC (white circles), 4×MIC (inverted black triangles), or 8×MIC (white triangles) of compounds 20 or 22, or with 1×MIC (black squares) or 4×MIC (white squares) of VOR. The detection limit of this assay was 100 CFU/mL (represented by the red line in panels A and C).
Time-kill assays. To determine if the antifungal activity of the alkylated piperazine-azole hybrids is fungistatic or fungicidal, we performed time-kill assays over 24-hour periods by using compounds 20 and 22, each against two fungal strains (strains A and J for 20; H and J for 22) (FIG. 9).

[7] = tested on: Aspergillus nidulans ATCC 38163; assay: MIC determination, strain L; format: cell-based
Source text: as §5, §6, §7, §8

[8] = tested on: Candida krusei ATCC 6258; assay: MIC determination, strain I; format: cell-based; details: Pichia kudriavzevii, ATCC6258
Procedure: as §1, §2, §3, §4

[9] = tested on: Candida glabrata ATCC 2001; details: Table 1; strain H; control azoles; previously reported (refs 5, 16); cited from earlier work
[10] = tested on: Aspergillus nidulans ATCC 38163; details: Table 1; strain L; control azoles; previously reported (refs 5, 16); cited from earlier work
[11] = tested on: Candida albicans ATCC 10231; details: Table 1; strain A; control azoles FLC, ITC, POS, VOR; previously reported (refs 5, 16); cited from earlier work
[12] = read-out: MIC (MIC-2), in parentheses

C[C@@H](c1ncncc1F)[C@](O)(Cn1cncn1)c1ccc(F)cc1F [VOR, voriconazole]
MIC ([1]; read-out: MIC (MIC-2)): 1.95 µg/mL
MIC [1, 12]: 5.6 µM
MIC ([2]; read-out: MIC (MIC-2)): 0.06 µg/mL
MIC [2, 12]: 0.17 µM
MIC ([3]; ATCC22019, read-out: MIC, Candida parapsilosis ATCC 22019 (J) (+10% FBS), Table 3, Ex.2 compounds, +10% FBS): 0.015 µg/mL
MIC ([3]; ATCC22019, Table 3, Ex.2 compounds, no FBS, read-out: MIC, Candida parapsilosis ATCC 22019 (J) (no FBS)): 0.015 µg/mL
MIC ([3]; ATCC22019, read-out: MIC (MIC-2)): < 0.03 µg/mL
MIC ([3]; ATCC22019, read-out: MIC (MIC-2), in parentheses): < 0.06 µM
MIC (MIC-2) [4]: 3.9^c μg/mL
MIC ([5]; read-out: MIC (MIC-0)): 0.12 µg/mL
MIC ([5]; read-out: MIC (MIC-0), in parentheses): 0.34 µM
effect in time-kill assay [6]: fungistatic
MIC ([7]; ATCC38163, Table 2, strain L, all compounds and controls, read-out: MIC (MIC-0)): 0.12 µg/mL
MIC ([7]; ATCC38163, Table 2, strain L, all compounds and controls, read-out: MIC (MIC-0), in parentheses): 0.34 µM
MIC ([7]; ATCC38163, Table 3, Ex.2 compounds, no FBS, read-out: MIC, Aspergillus nidulans ATCC 38163 (L) (no FBS)): 0.12 µg/mL
MIC ([7]; ATCC38163, read-out: MIC, Aspergillus nidulans ATCC 38163 (L) (+10% FBS), Table 3, Ex.2 compounds, +10% FBS): 0.12 µg/mL
MIC ([8]; read-out: MIC (MIC-2)): 0.12 µg/mL
MIC [8, 12]: 0.34 µM
MIC (MIC-2) [9]: 0.06^c μg/mL
MIC (MIC-2) [10]: 0.03^c μg/mL
MIC (MIC-2) [11]: 0.24^c μg/mL
